{"source": "paper PMC9116245", "about": "“New 1,2,3-triazole linked ciprofloxacin-chalcones induce DNA damage by inhibiting human topoisomerase I& II and tubulin polymerization” (Journal of Enzyme Inhibition and Medicinal Chemistry, 2022)", "key": {"[1]": {"tested_on": "CCRF-CEM", "type": "cell-based", "settings": "Homo sapiens"}, "[2]": {"tested_on": "A549/ATCC", "type": "cell-based", "settings": "Homo sapiens"}, "[3]": {"tested_on": "EKVX", "type": "cell-based", "settings": "Homo sapiens"}, "[4]": {"tested_on": "HOP-62", "type": "cell-based", "settings": "Homo sapiens"}, "[5]": {"tested_on": "HOP-92", "type": "cell-based", "settings": "Homo sapiens"}, "[6]": {"tested_on": "NCI-H226", "type": "cell-based", "settings": "Homo sapiens"}, "[7]": {"tested_on": "NCI-H460", "type": "cell-based", "settings": "Homo sapiens"}, "[8]": {"tested_on": "NCI-H522", "type": "cell-based", "settings": "Homo sapiens"}, "[9]": {"tested_on": "COLO 205", "type": "cell-based", "settings": "Homo sapiens"}, "[10]": {"tested_on": "HCT-116", "type": "cell-based, human"}, "[11]": {"tested_on": "HCT-15", "type": "cell-based", "settings": "Homo sapiens"}, "[12]": {"tested_on": "KM12", "type": "cell-based", "settings": "Homo sapiens"}, "[13]": {"tested_on": "SF-295", "type": "cell-based", "settings": "Homo sapiens"}, "[14]": {"tested_on": "SNB-75", "type": "cell-based", "settings": "Homo sapiens"}, "[15]": {"tested_on": "U251", "type": "cell-based", "settings": "Homo sapiens"}, "[16]": {"tested_on": "MALME-3M", "type": "cell-based", "settings": "Homo sapiens"}, "[17]": {"tested_on": "M14", "type": "cell-based", "settings": "Homo sapiens"}, "[18]": {"tested_on": "SK-MEL-2", "type": "cell-based", "settings": "Homo sapiens"}, "[19]": {"tested_on": "SK-MEL-28", "type": "cell-based", "settings": "Homo sapiens"}, "[20]": {"tested_on": "IGROV1", "type": "cell-based", "settings": "Homo sapiens, IGROV-1"}, "[21]": {"tested_on": "OVCAR-3", "type": "cell-based", "settings": "Homo sapiens"}, "[22]": {"tested_on": "OVCAR-5", "type": "cell-based", "settings": "Homo sapiens"}, "[23]": {"tested_on": "OVCAR-8", "type": "cell-based", "settings": "Homo sapiens"}, "[24]": {"tested_on": "NCI/ADR-RES", "type": "cell-based", "settings": "Homo sapiens"}, "[25]": {"tested_on": "A498", "type": "cell-based", "settings": "Homo sapiens"}, "[26]": {"tested_on": "ACHN", "type": "cell-based", "settings": "Homo sapiens"}, "[27]": {"tested_on": "CAKI-1", "type": "cell-based", "settings": "Homo sapiens"}, "[28]": {"tested_on": "Melanoma (cell line name not given)", "type": "cell-based", "settings": "Homo sapiens, under Melanoma"}, "[29]": {"tested_on": "TK-10", "type": "cell-based", "settings": "Homo sapiens"}, "[30]": {"tested_on": "MCF7", "type": "cell-based, human"}, "[31]": {"tested_on": "MDA-MB-231/ATCC", "type": "cell-based"}, "[32]": {"tested_on": "HS 578T", "type": "cell-based"}, "[33]": {"tested_on": "BT-549", "type": "cell-based", "settings": "Homo sapiens"}, "[34]": {"tested_on": "T-47D", "type": "cell-based", "settings": "Homo sapiens, T47D"}, "[35]": {"tested_on": "Human Embryonic Kidney (HEK) 293 cells", "assay": "Cytotoxicity assay with non-cancerous cells (MTS)", "type": "cell-based", "settings": "HEK293 versus cancer cells", "description": "To evaluate the selectivity and safety profile of the synthesised CP hybrids, a cytotoxicity experiment of compounds 4a, 4b, 4e, 4i, and 4j was performed using normal Human Embryonic Kidney (HEK) 293 cells.\nTo evaluate the selectivity and safety profile of the synthesised ciprofloxacin-chalcone hybrids, a cytotoxicity experiment was performed using a non-cancerous cell line. Briefly, Human Embryonic Kidney (HEK) 293 cells (ATCC, Manassas, VA, USA) were cultured in a Dulbecco’s Modified Eagle Medium (DEMEM) supplemented with 1 mM sodium pyruvate, 10 mM HEPES buffer solution, 2 mM GlutaMAX (Gibco, Grand Island, NY, USA), 50 µg/mL gentamycin sulphate (Dubuque, IA, USA), and 10% foetal bovine serum (ThermoFisher Scientific, USA). Cells were seeded in 96-well plates and incubated overnight in a humidified atmosphere with 5% CO2 at 37 °C. After 24 h, cells were treated with different concentrations (0.01–100 µM) of ciprofloxacin-chalcone hybrids. Also, DMSO and doxorubicin were used as negative and positive controls, respectively. After 72 h, old medium containing treatments were removed, and fresh medium and MTS reagents (CellTiter 96® AQueous One Solution Cell Proliferation Assay, Promega, Madison, WI, USA) were added. […] After 2 h, the absorbance was measured at 490 nm using a Spectra Max plus 384 Microplate reader (Molecular Devices, Sunnyvale, CA, USA) [74]. […]"}, "[36]": {"settings": "read-out: LC50 (the source's name)"}}, "note": "Read-outs that look alike come from different tables or passages of the source."}
{"smiles": "COc1cc(/C=C/C(=O)c2ccc(-n3cc(CN4CCN(c5cc6c(cc5F)c(=O)c(C(=O)O)cn6C5CC5)CC4)nn3)cc2)cc(OC)c1OC", "note": "[Compound 4j, (E)-1-cyclopropyl-6-fluoro-4-oxo-7–(4-((1–(4-(3-(3,4,5-trimethoxyphenyl)acryloyl)phenyl)-1H-1,2,3-triazol-4-yl)methyl)piperazin-1-yl)-1,4-dihydroquinoline-3-carboxylic acid]", "values": [{"measurement": "GI50", "setting": "[1]", "result": 2.63, "unit": "µM"}, {"measurement": "CC50", "setting": "[1]; [36]", "result": "> 100", "unit": "µM"}, {"measurement": "GI50", "setting": "[2]", "result": 2.98, "unit": "µM"}, {"measurement": "CC50", "setting": "[2]; [36]", "result": "> 100", "unit": "µM"}, {"measurement": "GI50", "setting": "[3]", "result": 4.24, "unit": "µM"}, {"measurement": "CC50", "setting": "[3]; [36]", "result": "> 100", "unit": "µM"}, {"measurement": "GI50", "setting": "[4]", "result": 2.49, "unit": "µM"}, {"measurement": "CC50", "setting": "[4]; [36]", "result": "> 100", "unit": "µM"}, {"measurement": "GI50", "setting": "[5]", "result": 11.7, "unit": "µM"}, {"measurement": "CC50", "setting": "[5]; [36]", "result": "> 100", "unit": "µM"}, {"measurement": "GI50", "setting": "[6]", "result": 2.39, "unit": "µM"}, {"measurement": "CC50", "setting": "[6]; [36]", "result": "> 100", "unit": "µM"}, {"measurement": "GI50", "setting": "[7]", "result": 2.4, "unit": "µM"}, {"measurement": "CC50", "setting": "[7]; [36]", "result": "> 100", "unit": "µM"}, {"measurement": "GI50", "setting": "[8]", "result": 4.25, "unit": "µM"}, {"measurement": "LC50", "setting": "[8]", "result": "> 100", "unit": "µM"}, {"measurement": "GI50", "setting": "[9]", "result": 5.08, "unit": "µM"}, {"measurement": "CC50", "setting": "[9]; [36]", "result": "> 100", "unit": "µM"}, {"measurement": "GI50", "setting": "[10]; HCT-116", "result": 0.21, "unit": "µM"}, {"measurement": "GI50", "setting": "[10]; Homo sapiens, HCT-116, HCT-116", "result": 0.206, "unit": "µM"}, {"measurement": "IC50", "setting": "[10]; Homo sapiens, HCT-116, HCT116, SRB assay", "result": 0.2, "unit": "µM"}, {"measurement": "GI50", "setting": "[11]", "result": 2.25, "unit": "µM"}, {"measurement": "CC50", "setting": "[11]; [36]", "result": "> 100", "unit": "µM"}, {"measurement": "GI50", "setting": "[12]", "result": 1.57, "unit": "µM"}, {"measurement": "CC50", "setting": "[12]; [36]", "result": "> 100", "unit": "µM"}, {"measurement": "GI50", "setting": "[13]", "result": 2.91, "unit": "µM"}, {"measurement": "CC50", "setting": "[13]; [36]", "result": "> 100", "unit": "µM"}, {"measurement": "GI50", "setting": "[14]", "result": 1.49, "unit": "µM"}, {"measurement": "CC50", "setting": "[14]; [36]", "result": "> 100", "unit": "µM"}, {"measurement": "GI50", "setting": "[15]; U-251", "result": 1.48, "unit": "µM"}, {"measurement": "CC50", "setting": "[15]; U-251, read-out: LC50 (the source's name)", "result": "> 100", "unit": "µM"}, {"measurement": "GI50", "setting": "[16]", "result": 2.59, "unit": "µM"}, {"measurement": "CC50", "setting": "[16]; [36]", "result": "> 100", "unit": "µM"}, {"measurement": "GI50", "setting": "[17]", "result": 2.49, "unit": "µM"}, {"measurement": "CC50", "setting": "[17]; [36]", "result": "> 100", "unit": "µM"}, {"measurement": "GI50", "setting": "[18]", "result": 21.1, "unit": "µM"}, {"measurement": "CC50", "setting": "[18]; [36]", "result": "> 100", "unit": "µM"}, {"measurement": "GI50", "setting": "[19]", "result": 2.77, "unit": "µM"}, {"measurement": "LC50", "setting": "[19]", "result": 78.9, "unit": "µM"}, {"measurement": "GI50", "setting": "[20]", "result": 1.64, "unit": "µM"}, {"measurement": "GI50", "setting": "[21]", "result": 1.84, "unit": "µM"}, {"measurement": "CC50", "setting": "[21]; [36]", "result": "> 100", "unit": "µM"}, {"measurement": "GI50", "setting": "[22]", "result": 3.7, "unit": "µM"}, {"measurement": "CC50", "setting": "[22]; [36]", "result": "> 100", "unit": "µM"}, {"measurement": "GI50", "setting": "[23]", "result": 4.03, "unit": "µM"}, {"measurement": "CC50", "setting": "[23]; [36]", "result": "> 100", "unit": "µM"}, {"measurement": "GI50", "setting": "[24]", "result": "> 100", "unit": "µM"}, {"measurement": "CC50", "setting": "[24]; [36]", "result": "> 100", "unit": "µM"}, {"measurement": "GI50", "setting": "[25]", "result": 4.18, "unit": "µM"}, {"measurement": "CC50", "setting": "[25]; [36]", "result": 39.8, "unit": "µM"}, {"measurement": "GI50", "setting": "[26]", "result": 3.5, "unit": "µM"}, {"measurement": "CC50", "setting": "[26]; [36]", "result": "> 100", "unit": "µM"}, {"measurement": "GI50", "setting": "[27]", "result": 5.1, "unit": "µM"}, {"measurement": "CC50", "setting": "[27]; [36]", "result": 51.7, "unit": "µM"}, {"measurement": "GI50", "setting": "[28]", "result": 1.73, "unit": "µM"}, {"measurement": "GI50", "setting": "[29]", "result": 5.61, "unit": "µM"}, {"measurement": "CC50", "setting": "[29]; [36]", "result": "> 100", "unit": "µM"}, {"measurement": "GI50", "setting": "[30]; Homo sapiens, MCF7, MCF7", "result": 0.396, "unit": "µM"}, {"measurement": "CC50", "setting": "[30]; Homo sapiens, MCF7, read-out: LC50 (the source's name)", "result": "> 100", "unit": "µM"}, {"measurement": "GI50", "setting": "[30]; MCF7", "result": 0.39, "unit": "µM"}, {"measurement": "GI50", "setting": "[31]; Homo sapiens, MDA-MB-231, MDA-MB231/ATCC", "result": 3.2, "unit": "µM"}, {"measurement": "CC50", "setting": "[31]; Homo sapiens, MDA-MB-231/ATCC, read-out: LC50 (the source's name)", "result": "> 100", "unit": "µM"}, {"measurement": "TGI", "setting": "[31]; MDA-MB231/ATCC", "result": ">100", "unit": "µM"}, {"measurement": "TGI", "setting": "[31]; MDA-MB-231/ATCC", "result": "> 1.00E-4", "unit": "Molar"}, {"measurement": "TGI", "setting": "[32]; HS 578 T", "result": ">100", "unit": "µM"}, {"measurement": "TGI", "setting": "[32]; HS 578T", "result": "> 1.00E-4", "unit": "Molar"}, {"measurement": "GI50", "setting": "[32]; Homo sapiens, HS 578T", "result": 3.91, "unit": "µM"}, {"measurement": "CC50", "setting": "[32]; Homo sapiens, HS 578T, read-out: LC50 (the source's name)", "result": "> 100", "unit": "µM"}, {"measurement": "GI50", "setting": "[33]", "result": 1.71, "unit": "µM"}, {"measurement": "GI50", "setting": "[34]", "result": 3.16, "unit": "µM"}, {"measurement": "CC50", "setting": "[34]; [36]", "result": "> 100", "unit": "µM"}, {"measurement": "selectivity index compared with Doxorubicin", "setting": "[35]", "result": "six-fold better"}]}
